Experimental data taken from patent US20130303575A1, “ADMINISTRATION OF AN INHIBITOR OF HDAC” (priority 2007, published 2013).

Assays:
[1] = tested on: refractory solid tumors or lymphomas; assay: Tumor response by Response Evaluation Criteria on Solid Tumors (Example 1); assay type: in vivo, human
Method: Tumor response was assessed every 6 weeks on the biweekly schedule (Schedule A) and every 8 weeks on the twice-weekly (Schedule B) and weekly (Schedule C) schedules, using appropriate imaging studies. Tumor responses were defined by the Response Evaluation Criteria on Solid Tumors.

[2] = tested on: advanced solid tumors or lymphomas; assay: Response evaluation in patients with advanced solid tumors or lymphoma (Example 2); assay type: in vivo, human
Method: At study entry, history, physical examination, laboratory studies (CBC, electrolytes, creatinine, blood urea nitrogen, total and direct bilirubin, ALT, AST, alkaline phosphatase, uric acid, prothrombin time, partial thromboplastin time, and urinalysis), computed tomography scan and chest x-ray and ECG were performed. Clinical assessments, including a physical examination and adverse event evaluation, were conducted at each follow-up. Adverse events were graded by the NCI Common Toxicity Criteria (version 2.0). Computed tomography scans and staging was performed every 6 weeks for the q14-day schedule. Disease-specific staging techniques, such as bone marrow aspirate and biopsy, flow cytometry, cutaneous lesion photography, or bone scan were used as indicated. Response evaluations used the Response Evaluation Criteria in Solid Tumors and the Cheson criteria for lymphoma. Multiple-gated acquisition (MUGA) scans were obtained on the q14-day schedule at base line, before course 2 and at each restaging. Laboratory studies (CBC with differential, chemistry 20, prothrombin time and […] thromboplastin time) were performed on days 1, 3, 5, 7 and repeated weakly.

SMILES: Nc1ccccc1NC(=O)c1ccc(CNC(=O)OCc2cccnc2)cc1 [SNDX-275, N-(2-aminophenyl) 4-[N-(pyrid-3-yl)methyloxycarbonylaminomethyl]benzamide]
- patients with stable disease ([1]; all schedules): 7
- patients with partial response ([1]; melanoma, Schedule A): One
- time on SNDX-275 of the patient with partial response ([1]; one melanoma patient): ≥ 22 months
- duration of stable disease ([1]; one patient with Ewing's sarcoma, Schedule A): ≥ 60 weeks
- duration of stable disease ([1]; one patient with melanoma, Schedule B): ≥ 20 weeks
- duration of stable disease ([1]; one patient with rectal carcinoma, Schedule A): ≥ 38 weeks
- patients remaining on treatment for greater than 3 months ([2]; human, in vivo): Ten of 29
- objective responses ([2]; q14-day schedule): not observed
- patients with stable disease ([2]; q14-day schedule): 15
